The test system of one assay is Ki-67. The assay can be described thus: Immunohistochemistry of ACC primagrafts, Ki-67. Type of assay: in vivo, nude mice. The following applies: ACC x6, x9, x11 primagrafts at conclusion of long-term studies. An excerpt: (§1) Primagraft experiments: For in vivo drug testing, ACC tumor fragments from host animals were implanted subcutaneously into the flank of nude mice (CRL: ATH/NU). Once tumors reached 125-250 mm3, mice were randomized to receive vehicle or drug diluted in 10:90 DMSO:10% hydroxypropyl-beta-cyclodextrin orally until controls reached a tumor volume endpoint of 1-2 cm3 (4-9 mice per group: x5M1 and x6, 4 treated vs. 9 vehicle controls; x9, 4 treated vs. 5 vehicle controls; x11, 5 treated vs. 8 vehicle controls). Mice were treated with ATRA (ACC x6 and x11: 4 mg/mL, 0.2 mL flat dose; ACC×9: 3 mg/mL, 0.2 mL flat dose) or isotretinoin (30 mg/mL, 0.2 mL flat dose). Tumor growth was monitored and mice weighed twice weekly and studies ended when final group reached tumor volume endpoint. No statistical methods were employed to determine the sample size, and no blinding of investigators was performed. […]
Immunohistochemistry: Sectioning and staining was carried out by the Dana-Farber/Harvard Cancer Center Specialized Histopathology Core using standard procedures on ACC x6, x9, and x11 samples (from long-term tumor growth inhibition studies). […] Primary antibody was detected using Bond Polymer Refine Detection kit. […] Images (>200 nuclei each) from three different individual primagrafts were blindly quantitated.

A further assay relates to c-myb:GFP. The assay can be described thus: c-myb:GFP zebrafish blastomere embryo culture chemical screen. The assay is classed as cell-based. To be noted: approximately 30 μM, 2 days. As for the experimental part: The inventors have developed an embryo culture system in which embryos bearing a c-myb:GFP transgenic reporter were dissociated during sphere stage at 4 hours post fertilization (hpf), and cultured in gelatin-coated 384 well plates with chemicals for 2 days until imaging for fluorescent reporter activity (FIG. 1). This fluorescent transgene is expressed in a similar pattern to the endogenous gene. […] This transgene responds to inducers of hematopoiesis, as myb is a marker of hematopoietic stem cells (HSCs).
The image analysis software (ImageJ and MatLab) was used to identify hits that downregulate c-myb:GFP zebrafish embryo cultures by a z-score less than […] and more than 70% downregulation. Hits were assessed by eye and scored for morphology. Toxic compounds that caused poor embryoid body (EB) formation were assessed a 4.
Zebrafish cell culture: Zebrafish embryo cultures were adapted from Xu (2013). Dissociated blastomere cells were grown in medium composed of 85% LDF medium, 5% heat inactivated FBS, and 10% zebrafish day 1 embryo extract. LDF medium contains 50% Leibowitz's L-15 (Invitrogen), 20% DMEM (Invitrogen), and 30% DMEM/F-12 (Invitrogen), supplemented with 0.018% sodium bicarbonate, 15 mM HEPES (Invitrogen), 1% L-Glutamine (Invitrogen), 10 nM sodium selenite (Sigma-Aldrich), 1% N2 (Invitrogen), 2% B27 (Invitrogen), 1% Penicillin-Streptomycin (Invitrogen), and 0.2% Primocin (InvivoGen).
Screening procedures: Two 384-well plates were coated with 0.1% gelatin for each chemical library plate. Males of the c-myb:GFP transgenic line were set up overnight with casper females and kept separated until morning when they were mixed for mating. Embryos were washed twice with E3 embryo water and treated with pronase to remove chorions. Dechorionated embryos were washed with E3 embryo water and collected into tubes containing media. Embryos were disassociated by shaking ˜10 times and were filtered through a 40 μm nylon mesh filter. Resulting single cells were diluted with medium and aliquoted 30 μl per well into the 384-well plates at approximately 2 embryo equivalents per well. Chemicals were dispensed immediately afterwards with an Agilent Bravo robot. Chemicals from the libraries were diluted 300 times with LDF medium and were aliquoted 10 μl per well for a final concentration of approximately 33 μM. […] Cells were cultured in a 28° C. incubator with 5% CO2. Two days later, cells were imaged by a Yokogawa Cell Voyager 7000 imager. Images were analyzed by ImageJ and MatLab and confirmed by eye. […]
Culture of dissociated blastomere cells: Stage-matched zebrafish blastomeres were dissociated at 4 hpf and grown in medium composed of 85% LDF medium, 5% FBS, and 10% embryo extract. LDF medium contains 50% Leibowitz's L-15 (Invitrogen), 20% DMEM (Invitrogen), and 30% DMEM/F-12 (Invitrogen), supplemented with 2% B27 (Gibco), 15 mM HEPES (Gibco), 1% L-glutamine (Gibco), 1% N2 (Gibco), 10 nM sodium selenite (Sigma), 100 ug/mL piperacillin (Sigma), 10 ug/mL ciprofloxacin (GenHunter), and 0.018% sodium bicarbonate (Gibco). Embryo extract was made by homogenizing 24 hpf wildtype AB embryos in HBSS (Gibco).

The test system of assay [1] is human salivary adenoid cystic carcinoma cell. To be noted: Chen et al. 1998; cell line said not to be bona fide ACC; cited from earlier work.
The subject of another assay is ACCx9. Nature of the assay: ACC xenotransplantation trial, ACCx9. Type of assay: in vivo, nude mice. The following applies: oral 0.2 mL flat dose: ATRA 3 mg/mL, isotretinoin 30 mg/mL, fenretinide 40 mg/mL. The protocol:
Xenograft experiments: To generate ACC xenografts, 1×10^6 viable ACC cells were injected into the flank of female nude (Foxn1nu) mice for in vivo drug testing of ACCx6, ACCx9, and ACCx11 lines. Once tumors were visible, the mice were randomized to receive vehicle control or drug until reaching a […] tumor volume of 1,000 mm3. The mice in each group were treated with an oral flat dose five times weekly (po qdx5) for four cycles (two days off between cycles). The exact dosing was determined based on an initial MTD tolerability study and published literature reports. Five mice per group were treated for ACCx6 and ACCx9, and four mice per group were treated for ACCx11 (five mice in the control ACCx11 group), and the tumor volumes were quantified. Mice were treated with a flat dose of 0.2 mL orally of: 30 mg/mL isotretinoin; 40 mg/mL fenretinide; 4 mg/mL ATRA for ACCx6 and ACCx11 or 3 mg/mL ATRA for ACCx9. Mouse procedures used in this study were approved by the IACUC at South Texas Accelerated Research Therapeutics (San Antonio, Tex.).
as §1

Setting [2] is: Table 2, c-myb:GFP embryo cultures, average across two plates.
Setting [3] is: Table 3, GFP signal in blastomere embryo culture screen.

For `CC(C=CC1=C(C)CCCC1(C)C)=CC=C/C(C)=C/C(=O)O` [ATRA, (E)-3,7-dimethyl-9-(2,6,6-trimethyl-1-cyclo-hexen-1-yl)-2,4,6,8-nonatetraenoic acid], the “proliferation (Ki-67 positive nuclei)” value with Ki-67 is “no significant effect”. Besides, the Z-Score in the assay on c-myb:GFP (setting [2]) and with c-myb:GFP (setting [3]) was −5.729 each time. Besides, the “effect on cell proliferation in vitro” value in assay [1] is “anti-proliferative effects”. In addition, the “tumor growth inhibition ACCx9” value in the assay with ACCx9 came out at 78%.

As to `CC1=C(/C=C/C(C)=C/C=C/C(C)=C/C(=O)Nc2ccc(O)cc2)C(C)(C)CCC1` [Fenretinide, retinoic acid p-hydroxyanilide], the Z-Score in the assay on c-myb:GFP (setting [2]) and in the assay on c-myb:GFP (setting [3]) was −1.582 throughout. The “tumor growth inhibition ACCx9” value in the assay with ACCx9 was 57%.

On to `CC1=C(/C=C/C(C)=C/C=C/C(C)=C\C(=O)O)C(C)(C)CCC1` [Isotretinoin, 13-cis-retinoic acid], for which the Z-Score with c-myb:GFP (setting [2]) and in the assay on c-myb:GFP (setting [3]) was −5.054 in each case. Besides, the “tumor growth inhibition ACCx9” value in the assay on ACCx9 is 95%.

The record behind these values is patent US10668039B2, “Methods for treatment of adenoid cystic carcinoma” (THE CHILDREN'S MEDICAL CENTER CORPORATION, priority 2016, dated 2020).
